Source: the NIST ThermoML archive (doi:10.1021/je0601356)
“And” between values parts separate entries of the source, which are not always exact repeats. Identical values can stand only once.

Conditions: Liquid, Vibrating wire viscometry

CC(F)(F)F [1,1,1-trifluoroethane]
Conditions	viscosity
254.35 K, 1340 kPa	0.2054 mPa·s
254.35 K, 1350 kPa	0.2063 mPa·s and 0.2059 mPa·s and 0.2062 mPa·s
254.35 K, 1360 kPa	0.2057 mPa·s and 0.2065 mPa·s
254.35 K, 1410 kPa	0.206 mPa·s
254.35 K, 1450 kPa	0.2063 mPa·s
254.35 K, 1960 kPa	0.208 mPa·s and 0.2082 mPa·s
254.35 K, 1970 kPa	0.2078 mPa·s
254.35 K, 2010 kPa	0.2081 mPa·s and 0.208 mPa·s
254.35 K, 2040 kPa	0.2083 mPa·s
254.35 K, 2070 kPa	0.2088 mPa·s
254.35 K, 3110 kPa	0.2114 mPa·s
254.35 K, 3160 kPa	0.2116 mPa·s
254.35 K, 3170 kPa	0.2115 mPa·s
254.35 K, 3210 kPa	0.2122 mPa·s
254.35 K, 3280 kPa	0.212 mPa·s
254.35 K, 3320 kPa	0.2119 mPa·s
254.35 K, 4170 kPa	0.2145 mPa·s
254.35 K, 4190 kPa	0.2147 mPa·s
254.35 K, 4210 kPa	0.2147 mPa·s
254.35 K, 4940 kPa	0.2173 mPa·s
254.35 K, 4970 kPa	0.2167 mPa·s
254.35 K, 5000 kPa	0.2176 mPa·s
254.35 K, 5020 kPa	0.2172 mPa·s
254.35 K, 5050 kPa	0.2171 mPa·s
254.35 K, 5100 kPa	0.2176 mPa·s
263.02 K, 1300 kPa	0.1828 mPa·s
263.02 K, 1320 kPa	0.1828 mPa·s and 0.1829 mPa·s
263.02 K, 1330 kPa	0.1827 mPa·s and 0.1826 mPa·s
263.02 K, 1970 kPa	0.1855 mPa·s
263.02 K, 1980 kPa	0.1857 mPa·s
263.02 K, 1990 kPa	0.1855 mPa·s
263.02 K, 2010 kPa	0.1851 mPa·s
263.02 K, 2020 kPa	0.1857 mPa·s and 0.1859 mPa·s
263.02 K, 3420 kPa	0.1899 mPa·s
263.02 K, 3430 kPa	0.1898 mPa·s
263.02 K, 3450 kPa	0.1898 mPa·s
263.02 K, 3520 kPa	0.1903 mPa·s
263.02 K, 3560 kPa	0.1901 mPa·s
263.02 K, 3590 kPa	0.1898 mPa·s
263.02 K, 3640 kPa	0.1906 mPa·s
263.02 K, 3670 kPa	0.1905 mPa·s and 0.1908 mPa·s
263.02 K, 4800 kPa	0.1943 mPa·s
263.02 K, 4840 kPa	0.194 mPa·s
263.02 K, 4870 kPa	0.194 mPa·s
263.02 K, 4910 kPa	0.1942 mPa·s
263.02 K, 4950 kPa	0.1939 mPa·s
263.02 K, 6990 kPa	0.2018 mPa·s
263.02 K, 7090 kPa	0.201 mPa·s
263.02 K, 7160 kPa	0.2015 mPa·s
263.02 K, 7200 kPa	0.2011 mPa·s
263.02 K, 7230 kPa	0.2016 mPa·s
263.02 K, 7310 kPa	0.2013 mPa·s and 0.2019 mPa·s
263.02 K, 7380 kPa	0.2024 mPa·s
263.02 K, 7390 kPa	0.2015 mPa·s
263.02 K, 7420 kPa	0.2011 mPa·s
263.02 K, 7460 kPa	0.2024 mPa·s and 0.2022 mPa·s
263.02 K, 7520 kPa	0.2017 mPa·s
273.21 K, 1420 kPa	0.1617 mPa·s
273.21 K, 1430 kPa	0.1619 mPa·s
273.21 K, 1440 kPa	0.1619 mPa·s
273.21 K, 1450 kPa	0.1619 mPa·s
273.21 K, 1810 kPa	0.1629 mPa·s
273.21 K, 1820 kPa	0.1627 mPa·s
273.21 K, 1860 kPa	0.1629 mPa·s
273.21 K, 1890 kPa	0.1626 mPa·s
273.21 K, 3450 kPa	0.1681 mPa·s and 0.1679 mPa·s and 0.1682 mPa·s
273.21 K, 3460 kPa	0.1677 mPa·s
273.21 K, 3490 kPa	0.1682 mPa·s and 0.1678 mPa·s
273.21 K, 3500 kPa	0.168 mPa·s
273.21 K, 4850 kPa	0.1724 mPa·s
273.21 K, 4860 kPa	0.1722 mPa·s
273.21 K, 4880 kPa	0.1724 mPa·s and 0.1719 mPa·s
273.21 K, 4910 kPa	0.1722 mPa·s
273.21 K, 4960 kPa	0.1724 mPa·s
273.21 K, 5010 kPa	0.172 mPa·s
273.21 K, 5030 kPa	0.1723 mPa·s
273.21 K, 7780 kPa	0.1804 mPa·s
273.21 K, 7800 kPa	0.1805 mPa·s
273.21 K, 7810 kPa	0.1806 mPa·s
273.21 K, 7900 kPa	0.1803 mPa·s
273.21 K, 7960 kPa	0.1805 mPa·s
273.21 K, 9530 kPa	0.1854 mPa·s
273.21 K, 9540 kPa	0.1852 mPa·s
273.21 K, 9580 kPa	0.1856 mPa·s
273.21 K, 9610 kPa	0.1851 mPa·s
273.21 K, 9770 kPa	0.185 mPa·s
273.21 K, 9880 kPa	0.1853 mPa·s
283.22 K, 1240 kPa	0.1416 mPa·s
283.22 K, 1260 kPa	0.1418 mPa·s
283.22 K, 1470 kPa	0.1416 mPa·s
283.22 K, 1510 kPa	0.1424 mPa·s
283.22 K, 1530 kPa	0.1424 mPa·s
283.22 K, 1570 kPa	0.1429 mPa·s
283.22 K, 1900 kPa	0.1433 mPa·s
283.22 K, 1930 kPa	0.1433 mPa·s
283.22 K, 1950 kPa	0.1432 mPa·s
283.22 K, 1970 kPa	0.144 mPa·s
283.22 K, 2000 kPa	0.1435 mPa·s
283.22 K, 2050 kPa	0.1442 mPa·s
283.22 K, 3700 kPa	0.1495 mPa·s
283.22 K, 3720 kPa	0.1496 mPa·s
283.22 K, 3850 kPa	0.1497 mPa·s
283.22 K, 5130 kPa	0.1537 mPa·s
283.22 K, 5220 kPa	0.1543 mPa·s
283.22 K, 5260 kPa	0.1536 mPa·s and 0.154 mPa·s
283.22 K, 7400 kPa	0.1615 mPa·s
283.22 K, 7500 kPa	0.161 mPa·s
283.22 K, 7540 kPa	0.1607 mPa·s
283.22 K, 9720 kPa	0.1679 mPa·s
283.22 K, 9780 kPa	0.1678 mPa·s
283.22 K, 9940 kPa	0.168 mPa·s
283.22 K, 10050 kPa	0.1678 mPa·s
293.17 K, 1370 kPa	0.1253 mPa·s
293.17 K, 1390 kPa	0.1255 mPa·s
293.17 K, 1400 kPa	0.1252 mPa·s
293.17 K, 1420 kPa	0.1256 mPa·s
293.17 K, 1430 kPa	0.1258 mPa·s and 0.1256 mPa·s
293.17 K, 1440 kPa	0.1258 mPa·s
293.17 K, 1850 kPa	0.1268 mPa·s
293.17 K, 1860 kPa	0.1266 mPa·s
293.17 K, 1890 kPa	0.1271 mPa·s
293.17 K, 1920 kPa	0.1267 mPa·s
293.17 K, 1940 kPa	0.127 mPa·s
293.17 K, 3820 kPa	0.1333 mPa·s
293.17 K, 3830 kPa	0.1336 mPa·s
293.17 K, 3850 kPa	0.1337 mPa·s
293.17 K, 3860 kPa	0.1335 mPa·s
293.17 K, 3870 kPa	0.1333 mPa·s
293.17 K, 3890 kPa	0.1335 mPa·s and 0.1336 mPa·s
293.17 K, 4900 kPa	0.1378 mPa·s
293.17 K, 4920 kPa	0.1377 mPa·s
293.17 K, 4960 kPa	0.138 mPa·s
293.17 K, 4970 kPa	0.138 mPa·s
293.17 K, 5010 kPa	0.1381 mPa·s
293.17 K, 7450 kPa	0.1448 mPa·s
293.17 K, 7490 kPa	0.1446 mPa·s
293.17 K, 7520 kPa	0.145 mPa·s
293.17 K, 7550 kPa	0.1449 mPa·s
293.17 K, 7560 kPa	0.1449 mPa·s
293.17 K, 7590 kPa	0.1451 mPa·s
293.17 K, 7620 kPa	0.1453 mPa·s
293.17 K, 9740 kPa	0.1507 mPa·s
293.17 K, 9770 kPa	0.1506 mPa·s
293.17 K, 9820 kPa	0.1507 mPa·s
293.17 K, 9880 kPa	0.151 mPa·s
293.17 K, 9970 kPa	0.1511 mPa·s
293.17 K, 10070 kPa	0.1517 mPa·s
